Earlier results as cited in patent publication US6838050B1, “Methods and devices for providing anti-infective activity to a medical device” (Oxibio, Inc., priority 1999, dated 2005).

What was measured:
[1] = human

Question: For `II` [free iodine, elemental iodine], which “upper daily threshold for total iodine exposure posing no significant health threat” value [1] is on record?
Answer: The value was no more than 1000 micrograms per day.

Question: What about the “free iodine level at which effective microbial killing occurs” value (bacteria and viruses) of the same compound?
Answer: The value was “not less than 0.1 ppm”.

Question: What about the “level in solution sufficient to kill bacteria and viruses” value (bacteria and viruses) of the same compound?
Answer: The value was “A few parts per million”.

Question: And the “upper limit of solubility” value?
Answer: Its value is roughly 320 ppm.
